Experimental data taken from US20040067998A1, “Antifungal and/or antiparasitic pharmaceutical composition and novel indole derivatives as active principle of such a composition” (priority 2003, published 2004).
Entries after “also recorded” stand apart in the source; their conditions may differ.

What was measured:
[1] = tested on: Candida albicans (strain n° CA980001); assay: Antifungal activity on a clinical strain of Candida albicans (MTT colorimetric microplate test); type: cell-based; conditions: strain CA980001; read-out: CMI or CI80 Candida albicans (CA980001)
[2] = tested on: promastigote stage of Leishmania mexicana; assay: Antiparasitic activity on the promastigote form of Leishmania (MTT); type: cell-based; conditions: promastigotes; read-out: CI50 Leishmania mexicana Promastigotes
[3] = tested on: clinical strains of Candida; assay: Antifungal activity in vitro on several clinical strains of Candida (overall statement over all strains); type: cell-based; conditions: summary of Table 41
[4] = tested on: Candida albicans (4 strains); assay: Antifungal activity in vitro on clinical strains of Candida: albicans (4 strains); type: cell-based
[5] = tested on: Candida krusei (4 strains); assay: Antifungal activity in vitro on clinical strains of Candida: krusei (4 strains); type: cell-based
[6] = tested on: Candida lusitaniae (1 strain); assay: Antifungal activity in vitro on clinical strains of Candida: lusitaniae (1 strain); type: cell-based
[7] = tested on: Candida parapsilosis (2 strains); assay: Antifungal activity in vitro on clinical strains of Candida: parapsilosis (2 strains); type: cell-based
[8] = tested on: Candida tropicalis (1 strain); assay: Antifungal activity in vitro on clinical strains of Candida: tropicalis (1 strain); type: cell-based; conditions: strain CT980002 (Candida tropicalis)
[9] = tested on: Candida albicans (CA98001); assay: Antifungal activity in vivo on a model of disseminated candidiasis; set-up: species or system female Swiss mice
synthesis of ergosterol = assay: Mechanism of action: quantification of ergosterol (HPLC and UV spectrophotometry); type: cell-based
Source text: The principal mechanism of action of the triazole derivatives is the inhibition of the synthesis of ergosterol leading to instability of the cell membrane. […] These two techniques require a prior saponification of the sample followed by an extraction of the sterols present. The results obtained are expressed in μg of ergosterol per g of sample. The activity of the derivatives studied is expressed by their capacity to inhibit the synthesis of ergosterol compared to an untreated control sample.

[10] = Test N°3, 3 × 20 mg/kg/d for 5 d intraperitoneal

## OC(Cn1cncn1)(Cn1ccc2ccccc21)c1ccc(Cl)cc1Cl (stereo not drawn) [compound 78]
[1]
  MIC: <1 nM
[2]
  IC50: < 1000 nM
[3]
  activity against different strains of Candida (in words): most active
[4]; clinical strains
  activity against strains of Candida albicans (in words): active; also recorded: very active
[4]; strain CA980001 (Candida albicans)
  CI80 on clinical strains of Candida: <1 nM
[4]; strain CA980002 (Candida albicans)
  CI80 on clinical strains of Candida: <10 nM
[4]; strain CA980003 (Candida albicans)
  CI80 on clinical strains of Candida: <10 nM
[4]; strain CA980005 (Candida albicans)
  CI80 on clinical strains of Candida: <10 nM
[5]; clinical strains, b748: one strain
  activity against Candida krusei (in words): active; also recorded: very active
[5]; strain CK980001 (Candida krusei)
  CI80 on clinical strains of Candida: <10 nM
[5]; strain CK980002 (Candida krusei)
  CI80 on clinical strains of Candida: 7200 ± 100 nM
[5]; strain CK980003 (Candida krusei)
  CI80 on clinical strains of Candida: 9200 ± 40 nM
[5]; strain CK980004 (Candida krusei)
  CI80 on clinical strains of Candida: 300 ± 100 nM
[6]; clinical strain
  activity against Candida lusitaniae (in words): very active
[6]; strain CL980001 (Candida lusitaniae)
  CI80 on clinical strains of Candida: <10 nM
[7]; clinical strains
  activity against Candida parapsilosis (in words): very active
[7]; strain CP980001 (Candida parapsilosis)
  CI80 on clinical strains of Candida: <10 nM
[7]; strain CP980002 (Candida parapsilosis)
  CI80 on clinical strains of Candida: 530 ± 120 nM
[8]
  CI80 on clinical strains of Candida: <10 nM
[9]; Test N°2, 2 × 30 mg/kg/d for 5 d intraperitoneally, monitored 14 days (78: from D9 to D14)
  effect of treatment on the survival of the animals (in words): significantly prolonged the survival
[9]; [10]
  survival at D14: 100%
  survival at D18: 75%
[9]; Test N°3, 3 × 20 mg/kg/d, experiment continued for 4 more days (D18)
  survival greater than that of the reference treatment (ketoconazole 20 mg/kg): 25%
[9]; Test N°4, 3 × 20 mg/kg/d for 5 d, treatment intraperitoneal or per os
  survival at D10: 100%
Synthesis of ergosterol; preliminary results
  inhibition of the synthesis of ergosterol (in words): strong inhibition
Synthesis of ergosterol; treatment for 24 hours at 10 μg, HPLC
  reduction of the presence of ergosterol (HPLC determination): 70%
Synthesis of ergosterol; treatment for 24 hours at 10 μg, UV spectrophotometry
  ergosterol in the treated sample (UV spectrophotometry, in words): absence of ergosterol
